Test results from patent US7888386B2, “3-(phenoxyphenylmethyl)pyrrolidine compounds” (Theravance, Inc., priority 2008, dated 2011).
Like-named read-outs stand apart in the source and are kept apart here.

Key:
hSERT = molecular target: T1, hSERT (Homo sapiens, UniProt P31645); assay: hSERT binding assay (Assay 1)
T1 construct: expressed in transfected cells; host or cells: HEK-293 derived cell line, stably transfected; membrane preparation
Protocol: (§1) Membrane radioligand binding assays were used to measure competitive inhibition of labeled ligand (^3H-citalopram or ^3H-nisoxetine or ^3H-WIN35428) binding to membranes prepared from cells expressing the respective human recombinant transporter (hSERT or hNET or hDAT) in order to determine the pKi values of test compounds at the transporters.
(§2) Recombinant human embryonic kidney (HEK-293) derived cell lines stably transfected with hSERT or hNET, respectively, were grown in DMEM medium supplemented with 10% dialyzed FBS (for hSERT) or FBS (for hNET), 100 μg/ml penicillin, 100 μg/ml streptomycin, 2 mM L-glutamine and 250 μg/ml of the aminoglycoside antibiotic G418, in a 5% CO2 humidified incubator at 37° C. When cultures reached 80% confluence, the cells were washed thoroughly in PBS (without Ca^2+ and Mg^2+) and lifted with 5 mM EDTA in PBS. Cells were pelleted by centrifugation, resuspended in lysis buffer (10 mM Tris-HCl, pH 7.5 containing 1 mM EDTA), homogenized, pelleted by centrifugation, then resuspended in 50 mM Tris-HCl, pH 7.5 and 10% sucrose at 4° C. Protein concentration of the membrane suspension was determined using a Bio-Rad Bradford Protein Assay kit. Membranes were snap frozen and stored at −80° C. Chinese hamster ovary membranes expressing hDAT (CHO-DAT) were purchased from PerkinElmer and stored at −80° C.
(§3) Stock solutions (10 mM in DMSO) of test compound were prepared and serial dilutions made using Dilution Buffer (50 mM Tris-HCl, 120 mM NaCl, 5 mM KCl, pH 7.4, 0.1% BSA, 400 μM ascorbic acid).
(§4) Following a 60 minute incubation at 22° C. (or a period sufficient to reach equilibrium), the membranes were harvested by rapid filtration over a 96-well UniFilter GF/B plate, pretreated with 0.3% polyethyleneimine, and washed 6 times with 300 μl wash buffer (50 mM Tris-HCl, 0.9% NaCl, pH 7.5 at 4° C.). Plates were dried overnight at room temperature, ˜45 μl of MicroScint™-20 (Perkin Elmer) added and bound radioactivity quantitated via liquid scintillation spectroscopy. Competitive inhibition curves and saturation isotherms were analyzed using GraphPad Prism Software package (GraphPad Software, Inc., San Diego, Calif.). IC50 values were generated from concentration response curves using the Sigmoidal Dose Response (variable slope) algorithm in Prism GraphPad.

hNET = molecular target: T2, hNET (Homo sapiens, UniProt P23975); assay: hNET binding assay (Assay 1); conditions: read-out: NET pKi (converted)
T2 construct: expressed in transfected cells; host or cells: HEK-293 derived cell line, stably transfected; membrane preparation
Protocol: as §1, §2, §3, §4

[1] = ratio of binding Ki at SERT to Ki at NET, the tables list only compounds with a ratio in the range 0.1-100
[2] = hNET binding, the tables list only compounds with NET pKi≧8
[3] = ratio of binding Ki at hSERT to Ki at hNET, rounded off to the nearest tenth
[4] = membranes of HEK-293 cells expressing hNET, 1.0 nM 3H-nisoxetine

T2 sequence (P23975 whole entry): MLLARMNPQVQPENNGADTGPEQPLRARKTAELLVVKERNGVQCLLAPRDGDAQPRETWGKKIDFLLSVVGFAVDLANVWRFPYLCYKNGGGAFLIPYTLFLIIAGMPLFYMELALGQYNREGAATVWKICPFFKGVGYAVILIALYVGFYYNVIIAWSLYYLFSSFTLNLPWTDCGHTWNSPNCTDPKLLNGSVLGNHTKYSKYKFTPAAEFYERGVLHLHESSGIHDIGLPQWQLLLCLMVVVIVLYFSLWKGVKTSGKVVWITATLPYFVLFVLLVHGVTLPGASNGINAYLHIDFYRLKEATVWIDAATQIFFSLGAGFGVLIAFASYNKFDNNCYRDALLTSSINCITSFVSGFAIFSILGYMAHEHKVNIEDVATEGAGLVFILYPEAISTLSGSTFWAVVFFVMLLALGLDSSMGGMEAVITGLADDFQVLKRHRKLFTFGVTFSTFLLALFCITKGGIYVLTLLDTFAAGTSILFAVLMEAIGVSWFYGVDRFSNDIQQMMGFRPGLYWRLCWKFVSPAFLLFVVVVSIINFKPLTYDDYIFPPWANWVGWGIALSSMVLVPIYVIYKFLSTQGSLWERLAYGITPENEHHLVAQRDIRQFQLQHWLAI
T1 sequence (P31645 whole entry): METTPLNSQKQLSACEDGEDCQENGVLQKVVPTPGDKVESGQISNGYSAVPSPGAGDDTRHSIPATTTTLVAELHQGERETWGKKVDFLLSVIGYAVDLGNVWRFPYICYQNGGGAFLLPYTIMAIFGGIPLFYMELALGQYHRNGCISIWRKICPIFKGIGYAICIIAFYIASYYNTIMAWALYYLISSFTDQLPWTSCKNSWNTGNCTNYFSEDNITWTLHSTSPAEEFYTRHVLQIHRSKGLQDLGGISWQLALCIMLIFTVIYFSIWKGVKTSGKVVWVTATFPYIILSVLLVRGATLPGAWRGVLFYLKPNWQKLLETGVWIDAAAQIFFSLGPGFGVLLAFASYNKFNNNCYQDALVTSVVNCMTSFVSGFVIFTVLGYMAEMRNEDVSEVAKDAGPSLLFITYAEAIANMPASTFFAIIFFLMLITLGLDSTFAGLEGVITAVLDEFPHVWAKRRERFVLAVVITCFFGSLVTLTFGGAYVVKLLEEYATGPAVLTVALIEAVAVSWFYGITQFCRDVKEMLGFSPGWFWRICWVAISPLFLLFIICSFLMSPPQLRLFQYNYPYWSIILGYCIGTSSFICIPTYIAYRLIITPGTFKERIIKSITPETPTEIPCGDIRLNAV

SMILES	SERT Ki/NET Ki (hSERT; [1])	Ki (hNET; [2])	SERT Ki/NET Ki (hSERT; [3])	Ki (hNET; [4])
NC(=O)c1cccc(C(Oc2c(F)cc(F)cc2F)C2CCNC2)c1 (centres unmarked) [45-5]	3.2	7.94 nM	–	–
Fc1cc(F)c(Cl)c(OC(c2ccccc2)C2CCNC2)c1F (centres unmarked) [47-6]	6.3	0.398 nM	–	–
Fc1cc(F)c(Cl)c(OC(c2ccccc2)C2CCNC2)c1F (centres unmarked) [47-7]	0.4	0.501 nM	–	–
Fc1cc(F)cc(C(Oc2c(Cl)c(F)cc(F)c2Cl)C2CCNC2)c1 (centres unmarked) [48-1]	2	0.501 nM	–	–
Fc1cc(F)cc([C@H](Oc2c(Cl)c(F)cc(F)c2Cl)[C@H]2CCNC2)c1 [48-2]	10	0.398 nM	–	–
Fc1cc(F)cc([C@@H](Oc2c(Cl)c(F)cc(F)c2Cl)[C@@H]2CCNC2)c1 [48-3]	2	0.251 nM	–	–
Fc1cc(F)c(Cl)c(OC(c2ccccc2Cl)C2CCNC2)c1Cl (centres unmarked) [48-4]	0.2	7.94 nM	–	–
Fc1c(F)c(F)c(O[C@@H](c2ccccc2)[C@H]2CCNC2)c(F)c1F [49-1]	2.5	3.98 nM	–	–
COC(=O)c1c(F)c(F)c(F)c(F)c1OC(c1ccccc1)C1CCNC1 (centres unmarked) [49-8]	0.4	3.16 nM	–	–
Brc1ccccc1OC(c1ccccc1)C1CCNC1 (centres unmarked) [Compound 19-7]	–	–	1	1 nM
Ic1ccccc1OC(c1ccccc1)C1CCNC1 (centres unmarked) [Compound 19-8]	–	–	0.6	1 nM
CCc1ccccc1OC(c1ccccc1)C1CCNC1 (centres unmarked) [Compound 19-11]	–	–	4	3.16 nM
CC(C)c1ccccc1OC(c1ccccc1)C1CCNC1 (centres unmarked) [Compound 19-12]	–	–	16	2 nM
FC(F)(F)c1ccccc1OC(c1ccccc1)C1CCNC1 (centres unmarked) [Compound 19-13]	–	–	7.9	2.51 nM
CC(C)Oc1ccccc1OC(c1ccccc1)C1CCNC1 (centres unmarked) [Compound 19-17]	–	–	40	3.16 nM
FC(F)(F)Oc1ccccc1OC(c1ccccc1)C1CCNC1 (centres unmarked) [Compound 19-18]	–	–	20	1.26 nM

SMILES	SERT Ki/NET Ki (hSERT; [1])	Ki (hNET; [2])	SERT Ki/NET Ki (hSERT; [3])	Ki (hNET; [4])
c1ccc(-c2ccccc2OC(c2ccccc2)C2CCNC2)cc1 (centres unmarked) [Compound 19-19]	–	–	32	2 nM
c1ccc(Cc2ccccc2OC(c2ccccc2)C2CCNC2)cc1 (centres unmarked) [Compound 19-20]	–	–	1.6	7.94 nM
c1ccc(Cc2ccccc2OC(c2ccccc2)C2CCNC2)cc1 (centres unmarked) [Compound 19-21]	–	–	5	5.01 nM
CCC(=O)c1ccccc1OC(c1ccccc1)C1CCNC1 (centres unmarked) [Compound 19-26]	–	–	50	3.98 nM
CCC(=O)c1ccccc1OC(c1ccccc1)C1CCNC1 (centres unmarked) [Compound 19-27]	–	–	100	2 nM
CSc1ccccc1OC(c1ccccc1)C1CCNC1 (centres unmarked) [Compound 19-29]	–	–	25	0.631 nM
CSc1ccccc1OC(c1ccccc1)C1CCNC1 (centres unmarked) [Compound 19-30]	–	–	63	0.398 nM
Clc1ccccc1OC(c1ccccc1Cl)C1CCNC1 (centres unmarked) [Compound 20-1]	–	–	0.5	3.16 nM
Fc1cccc(C(Oc2ccccc2Cl)C2CCNC2)c1 (centres unmarked) [Compound 20-4]	–	–	0.63	2.51 nM
Clc1cccc(C(Oc2ccccc2Cl)C2CCNC2)c1 (centres unmarked) [Compound 20-5]	–	–	1.6	2.51 nM
COc1cccc(C(Oc2ccccc2Cl)C2CCNC2)c1 (centres unmarked) [Compound 20-7]	–	–	1.3	3.16 nM
COc1cccc(C(Oc2ccccc2C(C)C)C2CCNC2)c1 (centres unmarked) [Compound 20-10]	–	–	2.5	5.01 nM
CC(C)c1ccccc1OC(c1cccc(Cl)c1)C1CCNC1 (centres unmarked) [Compound 20-12]	–	–	7.9	5.01 nM
CC(C)c1ccccc1OC(c1cccc(F)c1)C1CCNC1 (centres unmarked) [Compound 20-13]	–	–	10	5.01 nM
COc1ccccc1OC(c1cccc(F)c1)C1CCNC1 (centres unmarked) [Compound 20-15]	–	–	4	5.01 nM
